# Assays:
# [1] = Inhibition of theophylline-stimulated melanogenesis in mouse B16-4A5 cells after 72 hrs by microplate reader analysis; format: functional, cell-based
# [2] = Potency index, ratio of arbutin IC50 to compound IC50 for inhibition of theophylline-stimulated melanogenesis in mouse B16-4A5 cells; format: functional
# [3] = Cytotoxicity against mouse B16-4A5 cells assessed as cell viability at 3 uM after 72 hrs by MTT assay in presence of theophylline relative to control; format: cell-based; settings: read-out: Activity
# [4] = Cytotoxicity against mouse B16-4A5 cells assessed as cell viability at 10 uM after 72 hrs by MTT assay in presence of theophylline relative to control; format: cell-based; settings: read-out: Activity
compound,measurement,setting,value
COc1ccc2c(c1)C(C)(C)c1nccc3cc4c(c-2c13)OCO4,IC50,[1],4.7 µM
same,Ratio IC50,[2],40
same,"viability at 72 h, 3 µM",[3],95.7%
same,"viability at 72 h, 10 µM",[4],86.7%

# From ChEMBL document CHEMBL3593205, “Total Synthesis of 4,5-Didehydroguadiscine: A Potent Melanogenesis Inhibitor from the Brazilian Medicinal Herb, Hornschuchia obliqua” (J Nat Prod, 2015)
